Laboratory results reported in patent US11046699B2, “Pyrazolo-pyrimidin-amino-cycloalkyl compounds and their therapeutic uses” (RAPT THERAPEUTICS, INC., priority 2018, dated 2021).

Target: GCN2 (Homo sapiens, UniProt Q9P2K8)
Experiment: GCN2 enzymatic endpoint assay: phosphorylation of GFP-eIF2α measured by TR-FRET (Lanthascreen)
Assay type: biochemical
Conditions: GCN2 biochemical IC50; 4 nM GCN2, 2 μM ATP, 80 nM GFP-eIF2α, 90 min RT; read-out: GCN2 activity
In short: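 Endpoint GCN2 reaction with low ATP (2 μM) and 80 nM GFP-eIF2α, room temperature, 90 minutes. Detection mix with EDTA and Tb-labelled antibody; 520 nm/495 nm emission ratio reported.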

Chain of GCN2 (Q9P2K8 whole entry): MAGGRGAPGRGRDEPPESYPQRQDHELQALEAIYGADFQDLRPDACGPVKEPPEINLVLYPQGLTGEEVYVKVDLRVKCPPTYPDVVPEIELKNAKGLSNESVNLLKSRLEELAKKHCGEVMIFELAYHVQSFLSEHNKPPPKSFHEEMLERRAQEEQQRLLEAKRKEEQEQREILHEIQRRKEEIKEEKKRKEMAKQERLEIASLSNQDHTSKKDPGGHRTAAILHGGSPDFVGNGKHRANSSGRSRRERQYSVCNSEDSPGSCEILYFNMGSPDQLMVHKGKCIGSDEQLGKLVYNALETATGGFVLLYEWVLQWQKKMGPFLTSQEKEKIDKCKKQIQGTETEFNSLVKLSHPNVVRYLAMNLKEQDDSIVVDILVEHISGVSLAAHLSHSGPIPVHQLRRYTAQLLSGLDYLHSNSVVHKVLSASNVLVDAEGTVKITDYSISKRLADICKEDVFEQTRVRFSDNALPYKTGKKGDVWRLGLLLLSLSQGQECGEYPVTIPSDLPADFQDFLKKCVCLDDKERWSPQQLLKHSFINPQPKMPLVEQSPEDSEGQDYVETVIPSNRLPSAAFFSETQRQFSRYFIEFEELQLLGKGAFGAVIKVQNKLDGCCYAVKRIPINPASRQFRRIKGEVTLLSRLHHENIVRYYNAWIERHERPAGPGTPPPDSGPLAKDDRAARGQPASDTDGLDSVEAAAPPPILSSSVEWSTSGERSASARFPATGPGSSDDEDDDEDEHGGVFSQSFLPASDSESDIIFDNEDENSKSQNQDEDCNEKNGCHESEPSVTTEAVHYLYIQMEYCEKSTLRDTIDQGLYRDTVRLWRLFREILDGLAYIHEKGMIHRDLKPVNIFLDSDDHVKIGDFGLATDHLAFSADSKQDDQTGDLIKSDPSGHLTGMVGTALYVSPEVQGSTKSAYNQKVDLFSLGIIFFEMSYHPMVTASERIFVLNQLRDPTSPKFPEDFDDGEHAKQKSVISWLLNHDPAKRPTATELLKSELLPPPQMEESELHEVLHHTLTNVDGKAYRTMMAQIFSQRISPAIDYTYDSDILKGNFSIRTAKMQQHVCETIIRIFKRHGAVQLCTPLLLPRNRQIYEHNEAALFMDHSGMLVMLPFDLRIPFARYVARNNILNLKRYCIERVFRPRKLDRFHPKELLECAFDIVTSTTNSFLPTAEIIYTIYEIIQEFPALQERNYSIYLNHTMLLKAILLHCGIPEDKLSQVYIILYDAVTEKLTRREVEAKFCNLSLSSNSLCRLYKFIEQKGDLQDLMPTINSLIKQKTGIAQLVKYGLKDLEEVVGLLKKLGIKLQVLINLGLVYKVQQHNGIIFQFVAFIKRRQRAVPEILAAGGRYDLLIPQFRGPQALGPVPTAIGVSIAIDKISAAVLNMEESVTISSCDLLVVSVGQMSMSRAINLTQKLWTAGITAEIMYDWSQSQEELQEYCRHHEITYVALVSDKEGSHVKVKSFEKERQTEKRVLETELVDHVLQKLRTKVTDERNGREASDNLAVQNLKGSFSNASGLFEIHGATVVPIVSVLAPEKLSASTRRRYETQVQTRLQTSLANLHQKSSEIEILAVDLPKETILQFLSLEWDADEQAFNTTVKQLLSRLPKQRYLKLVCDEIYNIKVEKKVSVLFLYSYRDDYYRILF

Compound | IC50 [nM]
CNC(=O)[C@]1(C)CC[C@@H](Nc2ncc3c(I)nn(-c4cc(F)c5ncccc5c4)c3n2)C1 [Example 31, (1R,3R)-3-((1-(8-fluoroquinolin-6-yl)-3-iodo-1H-pyrazolo[3,4-d]pyrimidin-6-yl)amino)-N,1-dimethylcyclopentane-1-carboxamide; 2,2,2-trifluoroacetic acid] | < 25

Same assay, conditions: tested as described in Example 77; compound and/or hydrochloride, dihydrochloride or trifluoroacetic acid salt; read-out: IC 50 Activity

Compound | IC50 [nM]
CNC(=O)[C@]1(C)CC[C@@H](Nc2ncc3c(Br)nn(-c4ccc(C#N)c(OCC5(F)CNC5)c4)c3n2)C1 [(1R,3R)-3-[[3-bromo-1-[4-cyano-3-[(3-fluoroazetidin-3-yl)methoxy]phenyl]pyrazolo[3,4-d]pyrimidin-6-yl]amino]-N,1-dimethyl-cyclopentanecarboxamide] | 25 to 200
CNC(=O)[C@]1(C)CC[C@@H](Nc2ncc3c(Br)nn(-c4ccc(-c5ncco5)c(OCCO)c4)c3n2)C1 [(1R,3R)-3-[[3-bromo-1-[3-(2-hydroxy-ethoxy)-4-oxazol-2-yl-phenyl]pyrazolo [3,4-d]pyrimidin-6-yl]amino]-N,1-dimethyl-cyclopentanecarboxamide] | < 25
O=C1OCC[C@@]12CC[C@@H](Nc1ncc3c(Br)nn(-c4cc(F)c5ncccc5c4)c3n1)C2 [(5S,8R)-8-[[3-bromo-1-(8-fluoro-6-quinolyl)pyrazolo[3,4-d]pyrimidin-6-yl]amino]-2-oxaspiro[4.4]nonan-1-one] | 25 to 200
CNC(=O)[C@]1(C)CC[C@@H](Nc2ncc3c(Br)nn(-c4cccc(NC(=O)c5cscn5)c4)c3n2)C1 [N-[3-[3-bromo-6-[[(1R,3R)-3-methyl-3-(methylcarbamoyl)cyclopentyl]amino]pyrazolo[3,4-d]pyrimidin-1-yl]phenyl] thiazole-4-carboxamide] | 25 to 200
CNC(=O)[C@]1(C)CC[C@@H](Nc2ncc3c(Br)nn(-c4cc(F)cc(C(N)=O)c4)c3n2)C1 [3-[3-bromo-6-[[(1R,3R)-3-methyl-3-(methylcarbamoyl)cyclopentyl]amino]pyrazolo[3,4-d]pyrimidin-1-yl]-5-fluoro-benzamide] | 25 to 200
CC1(C(=O)NCCF)CC[C@@H](Nc2ncc3c(Br)nn(-c4cc(F)c5ncccc5c4)c3n2)C1 (stereo partly drawn) [(3R)-3-[[3-bromo-1-(8-fluoro-6-quinolyl)pyrazolo[3,4-d]pyrimidin-6-yl]amino]-N-(2-fluoroethyl)-1-methyl-cyclopentane-carboxamide] | 25 to 200
CNC(=O)[C@@H]1CC[C@@H](Nc2ncc3c(Br)nn(-c4ccc5nc(OC)ccc5c4)c3n2)C1 [(1R,3R)-3-[[3-bromo-1-(2-methoxy-6-quinolyl)pyrazolo[3,4-d]pyrimidin-6-yl]amino]-N-methyl-cyclopentanecarboxamide] | 25 to 200
CNC(=O)[C@]1(C)CC[C@@H](Nc2ncc3c(I)nn(-c4ccc(-c5nnc(C)o5)cc4)c3n2)C1 [(1R,3R)-3-[[3-iodo-1-[4-(5-methyl-1,3,4-oxadiazol-2-yl)phenyl]pyrazolo[3,4-d]pyrimidin-6-yl]amino]-N,1-dimethyl-cyclopentanecarboxamide] | < 25
O=C(NC1CCS(=O)(=O)CC1)[C@@H]1CC[C@@H](Nc2ncc3c(Br)nn(-c4ccc(-c5cccnc5)cc4)c3n2)C1 | 200 to 500
CNC(=O)[C@]1(C)CC[C@@H](Nc2ncc3c(Br)nn(-c4ccc(-c5noc(C)n5)cc4)c3n2)C1 [(1R,3R)-3-[[3-bromo-1-[4-(5-methyl-1,2,4-oxadiazol-3-yl)phenyl]pyrazolo [3,4-d]pyrimidin-6-yl]amino]-N,1-dimethyl-cyclopentanecarboxamide] | 25 to 200
CNC(=O)[C@]1(C)CC[C@@H](Nc2ncc3c(Br)nn(-c4ccc(-n5nccc5C)cc4)c3n2)C1 [(1R,3R)-3-[[3-bromo-1-[4-(5-methyl-pyrazol-1-yl)phenyl]pyrazolo[3,4-d]pyrimidin-6-yl]amino]-N,1-dimethyl-cyclopentanecarboxamide] | 25 to 200
Cn1ccnc1[C@@H]1CC[C@@H](Nc2ncc3c(Br)nn(-c4ccc5ncccc5c4)c3n2)C1 (relative stereo) [3-bromo-N-(trans-3-(1-methyl-1H-imidazol-2-yl)cyclopentyl)-1-(quinolin-6-yl)-1H-pyrazolo[3,4-d]pyrimidin-6-amine] | 25 to 200
O=C([C@@H]1CC[C@@H](Nc2ncc3c(Br)nn(-c4ccc5ncccc5c4)c3n2)C1)N1CCN[C@@H](CCO)C1 [((1R,3R)-3-((3-bromo-1-(quinolin-6-yl)-1H-pyrazolo[3,4-d]pyrimidin-6-yl)amino)cyclo-pentyl)((S)-3-(2-hydroxyethyl)piperazin-1-yl) methanone] | 25 to 200
CNC(=O)[C@]1(C)CC[C@@H](Nc2ncc3c(Br)nn(-c4cc(CCN)c5ncc(C#N)cc5c4)c3n2)C1 [(1R,3R)-3-[[1-[8-(2-aminoethyl)-3-cyano-6-quinolyl]-3-bromo-pyrazolo[3,4-d]pyrimidin-6-yl]amino]-N,1-dimethyl-cyclopentane-carboxamide] | 25 to 200
CNC(=O)[C@]1(C)CC[C@@H](Nc2ncc3c(Br)nn(-c4ccc(-c5nnc(C6CC6)o5)cc4)c3n2)C1 [(1R,3R)-3-[[3-bromo-1-[4-(5-cyclopropyl-1,3,4-oxadiazol-2-yl)phenyl]pyrazolo[3,4-d]pyrimidin-6-yl]amino]-N,1-dimethyl-cyclopentane-carboxamide] | 25 to 200
CNC(=O)[C@]1(C)CC[C@@H](Nc2ncc3c(Br)nn(-c4cc(Cl)c(F)c(CC#N)c4)c3n2)C1 | 25 to 200

Compound | IC50 [nM]
CNC(=O)[C@]1(C)CC[C@@H](Nc2ncc3c(Br)nn(-c4ccc(-c5ncco5)c(NC(=O)[C@H]5CCNC5)c4)c3n2)C1 [(3S)-N-[5-[3-bromo-6-[[(1R,3R)-3-methyl-3-(methylcarbamoyl)cyclopentyl]amino]pyrazolo[3,4-d]pyrimidin-1-yl]-2-oxazol-2-yl-phenyl]pyrrolidine-3-carboxamide] | < 25
O=C([C@@H]1CC[C@@H](Nc2ncc3c(Br)nn(-c4ccc5ncccc5c4)c3n2)C1)N1CC[S+]([O-])CC1 [((1R,3R)-3-((3-bromo-1-(quinolin-6-yl)-1H-pyrazolo[3,4-d]pyrimidin-6-yl)amino)cyclo-pentyl)(1-oxidothiomorpholino)methanone] | 25 to 200
CC[C@@]1(C(=O)NC)CC[C@@H](Nc2ncc3c(I)nn(-c4cc(F)c5ncccc5c4)c3n2)C1 [(1R,3R)-1-ethyl-3-[[1-(8-fluoro-6-quinolyl)-3-iodo-pyrazolo[3,4-d]pyrimidin-6-yl]amino]-N-methyl-cyclopentanecarboxamide] | < 25
Cc1nnc(-c2ccc(-n3nc(Br)c4cnc(N[C@@H]5CC[C@@H](NC(=O)C(C)C)C5)nc43)cc2CCC#N)s1 [N-[(1R,3R)-3-[[3-bromo-1-[3-(2-cyanoethyl)-4-(5-methyl-1,3,4-thiadiazol-2-yl)phenyl]pyrazolo[3,4-d]pyrimidin-6-yl]amino]cyclopentyl]-2-methyl-propanamide] | 500 to 1000
CNC(=O)[C@@]1(CC(F)(F)F)CC[C@@H](Nc2ncc3c(Br)nn(-c4ccc(-c5nnc(C)s5)cc4)c3n2)C1 | 25 to 200
CNC(=O)[C@]1(C)CC[C@@H](Nc2ncc3c(Br)nn(-c4cc(CN5C(=O)CNCC5=O)c5ncccc5c4)c3n2)C1 [(1R,3R)-3-[[3-bromo-1-[8-[(2,6-dioxo-piperazin-1-yl)methyl]-6-quinolyl]pyrazolo [3,4-d]pyrimidin-6-yl]amino]-N,1-dimethyl-cyclopentanecarboxamide] | 25 to 200
CNC(=O)[C@]1(C)CC[C@@H](Nc2ncc3c(Br)nn(-c4cc(F)c5nc(C)ccc5c4)c3n2)C1 [(1R,3R)-3-[[3-bromo-1-(8-fluoro-2-methyl-6-quinolyl)pyrazolo[3,4-d]pyrimidin-6-yl]amino]-N,1-dimethyl-cyclopentane-carboxamide] | < 25
COCCNC(=O)[C@@H]1CC[C@@H](Nc2ncc3c(Br)nn(-c4ccc5nccn5c4)c3n2)C1 [(1R,3R)-3-((3-bromo-1-(imidazo[1,2-a]pyridin-6-yl)-1H-pyrazolo[3,4-d]pyrimidin-6-yl)amino)-N-(2-methoxyethyl)cyclopentane-1-carboxamide] | 500 to 1000
CNC(=O)[C@]1(C)CC[C@@H](Nc2ncc3c(Br)nn(-c4ccc5c(c4)CN(C(=O)C4CNC4)C5)c3n2)C1 [(1R,3R)-3-[[1-[2-(azetidine-3-carbonyl)isoindolin-5-yl]-3-bromo-pyrazolo[3,4-d]pyrimidin-6-yl]amino]-N,1-dimethyl-cyclopentanecarboxamide] | 25 to 200
CC(C)NC(=O)[C@]1(C)CC[C@@H](Nc2ncc3c(Br)nn(-c4cc(F)c5ncccc5c4)c3n2)C1 [(1R,3R)-3-[[3-bromo-1-(8-fluoro-6-quinolyl)pyrazolo[3,4-d]pyrimidin-6-yl]amino]-N-isopropyl-1-methyl-cyclopentanecarboxamide] | < 25
Cc1nnc(-c2ccc(-n3nc(Br)c4cnc(N[C@@H]5CC[C@@]6(CCNC6=O)C5)nc43)cc2CCC#N)s1 | 25 to 200
CNC(=O)[C@@H]1CC[C@@H](Nc2ncc3c(Br)nn(-c4cnc5c(C#N)cccc5c4)c3n2)C1 [(1R,3R)-3-[[3-bromo-1-(8-cyano-3-quinolyl)pyrazolo[3,4-d]pyrimidin-6-yl]amino]-N-methyl-cyclopentanecarboxamide] | 25 to 200
CNC(=O)[C@]1(C)CC[C@@H](Nc2ncc3c(Br)nn(-c4ccc5ncsc5c4)c3n2)C1 [(1R,3R)-3-[[1-(1,3-benzothiazol-6-yl)-3-bromo-pyrazolo[3,4-d]pyrimidin-6-yl]amino]-N,1-dimethyl-cyclopentane-carboxamide] | 25 to 200
COC1CCN(C(=O)[C@]2(C)CC[C@@H](Nc3ncc4c(Br)nn(-c5cc(F)c6ncccc6c5)c4n3)C2)C1 (stereo partly drawn) [[(1R,3R)-3-[[3-bromo-1-(8-fluoro-6-quinolyl)pyrazolo[3,4-d]pyrimidin-6-yl]amino]-1-methyl-cyclopentyl]-(3-methoxypyrrolidin-1-yl)methanone] | 25 to 200
Cc1nnc(-c2ccc(-n3nc(Br)c4cnc(N[C@@H]5CCC(C)(C(=O)N6CCNCC6)C5)nc43)cc2)o1 (stereo partly drawn) [[(3R)-3-[[3-bromo-1-[4-(5-methyl-1,3,4-oxadiazol-2-yl)phenyl]pyrazolo[3,4-d]pyrimidin-6-yl]amino]-1-methyl-cyclo-pentyl]-piperazin-1-yl-methanone] | 25 to 200
